Reference: US9090535B2, “Hydroxylated tricyclic compounds” (Nektar Therapeutics, priority 2010, dated 2015)
Where a name gives a salt, the structure may show the parent alone. Read-outs that look alike come from different tables or passages of the source.

Key:
[1] = molecular target: T1, human norepinephrine transporter (hNET) (Homo sapiens, UniProt P23975); test: Binding affinity to human norepinephrine transporter (hNET), [3H]Nisoxetine displacement; settings: membranes from MDCK cells expressing hNET, [3H]Nisoxetine 2 nM, read-out: NET binding, Ki
T1 construct: expressed in transfected cells; host or cells: MDCK cells
Protocol: The binding affinities of certain compounds disclosed herein to the hNET were measured using competitive radioligand displacement assays in membranes prepared from MDCK cells that express the human norepinephrine transporter. Competition binding experiments were conducted by incubating hNET membranes with [^3H] Nisoxetine (2 nM), in the presence of increasing concentrations of test compounds. Incubations were carried out at 4° C. for 60 minutes in buffer containing 50 mM Tris HCl, 120 mM NaCl and 5 mM KCl (pH 7.4). The binding reaction was terminated by rapid filtration, membranes were washed and membrane-bound radioactivity was measured using a scintillation counter. Non-specific binding was measured in the presence of excess (10 μM) clomipramine as the unlabelled ligand and this value was subtracted from the total binding to yield the specific binding at each test compound concentration.
IC50 values were obtained from non-linear regression analysis of concentration-versus specific binding plots. Ki values were calculated from the IC50 values using the Cheng Prusoff correction and experimentally determined […] values for the radioligand under these assay conditions.

[2] = system: sodium channels (sodium current INa) in rat dorsal root ganglion (DRG) cells; test: Sodium channel assay, whole-cell patch clamp of sodium current in isolated DRG cells; assay type: cell-based
Source text: The effect of compounds disclosed herein on sodium channels may be evaluated in vitro to determine their blocking properties using the whole-cell patch clamp method in isolated cardiac (human atrial myocytes) and neuronal (rat dorsal root ganglion) cells. The example below refers to a sodium channel assay using neuronal cells.
Electrophysiologic patch clamp recordings of the sodium current in isolated rat dorsal root ganglion (DRG) cells were used to measure the sodium channel blocking properties of certain compounds disclosed herein. DRG cells were isolated according to the method of Blair and Bean (J Neurosci, 22: pp. 10277-10290, 2002) and plated on treated glass coverslips. For measuring the sodium current, cells were perfused with an external solution that consists of (in mmol/L): 115 TMA chloride, 10 NaCl, 5 CsCl, 1.8 CaCl2, 1.2 MgCl2, 10 HEPES, 11 dextrose, pH adjusted to 7.4 with TMA-OH. The chemical composition of the internal solution was (in mmol/L): 115 CsF, 20 CsCl, 10 NaF, 10 HEPES, 5 EGTA; pH adjusted to 7.2 with CsOH. Currents were measured using the whole-cell variant of the patch clamp method (Crumb & Clarkson, Biophysical Journal, 57(3): 589, 1990). An Axopatch 1-B amplifier (Axon Instruments, Foster City, Calif.) was used for whole-cell voltage clamping. Creation of voltage clamp pulses and data acquisition were controlled by a PC running pClamp software (version 9.2, Axon Instruments). INa was elicited by a 40 ms pulse to −20 mV from a holding potential of −65 mV. Pacing rates of 0.1 and 3 Hz were examined. […]. Four concentrations of each test compound were added to the cell in a cumulative manner starting with the lowest test concentration. Each cell served as its own control and data are presented as % reduction of current amplitude achieved in the presence of drug. A nonlinear curve fitting routine was utilized to fit a three-parameter Hill equation to the results using MicroCal Origin, version 6.0 software. The equation was: […]

[3] = molecular target: T2, cloned human hERG channel (Homo sapiens, UniProt Q12809); test: In vitro effect on hERG channels, whole-cell patch clamp in HEK cells; assay type: cell-based; settings: 37 °C, read-out: IhERG, 0.1 HZ, IC50
T2 construct: expressed in transfected cells; host or cells: HEK cells
Protocol: Electrophysiological measurements of hERG current were made in vitro to assess the hERG block produced by certain compounds disclosed herein. hERG currents were measured in HEK cells expressing the cloned human hERG channel using the whole-cell variant of the patch clamp method. Experiments were performed at 37±1° C. An Axopatch 1-B amplifier (Axon Instruments, Foster City, Calif.) was used for whole-cell voltage clamping. Creation of voltage clamp pulses and data acquisition was controlled by a PC running pClamp software (version 9.2, Axon Instruments). After rupture of the cell membrane (entering whole-cell mode), current kinetics and amplitudes were allowed to stabilize for 3-5 minutes as the cell was dialyzed with internal solution and paced at 0.1 Hz. Cells were depolarized to +10 mV for 500 ms from a holding potential of −75 mV and peak hERG current was measured as the maximum outward deflection of the tail current elicited upon return to −40 mV (pacing rate=0.1 Hz). Four concentrations of each test compound were added to the cell in a cumulative manner starting with the lowest test concentration. Each cell served as its own control and data are presented as % reduction of current amplitude achieved in the presence of drug.
A nonlinear curve fitting routine was utilized to fit a three-parameter Hill equation to the results using MicroCal Origin, version 6.0 software. The equation was: […]

T1 sequence (P23975 whole entry): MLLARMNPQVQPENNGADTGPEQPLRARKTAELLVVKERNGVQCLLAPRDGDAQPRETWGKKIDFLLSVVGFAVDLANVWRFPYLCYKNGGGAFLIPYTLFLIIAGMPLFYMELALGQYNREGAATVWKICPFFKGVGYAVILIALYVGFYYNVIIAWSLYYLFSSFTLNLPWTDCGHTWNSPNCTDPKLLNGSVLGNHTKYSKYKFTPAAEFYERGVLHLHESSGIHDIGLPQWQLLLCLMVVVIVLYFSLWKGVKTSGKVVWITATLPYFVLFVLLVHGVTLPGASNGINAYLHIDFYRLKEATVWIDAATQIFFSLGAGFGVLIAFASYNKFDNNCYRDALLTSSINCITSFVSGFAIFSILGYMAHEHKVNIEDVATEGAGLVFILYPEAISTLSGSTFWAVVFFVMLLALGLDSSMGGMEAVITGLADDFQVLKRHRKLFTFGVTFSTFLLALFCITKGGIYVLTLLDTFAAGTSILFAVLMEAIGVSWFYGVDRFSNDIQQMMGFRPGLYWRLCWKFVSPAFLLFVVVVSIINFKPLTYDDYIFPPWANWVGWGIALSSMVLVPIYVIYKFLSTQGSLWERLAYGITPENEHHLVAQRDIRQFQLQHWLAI
T2 sequence (Q12809 whole entry): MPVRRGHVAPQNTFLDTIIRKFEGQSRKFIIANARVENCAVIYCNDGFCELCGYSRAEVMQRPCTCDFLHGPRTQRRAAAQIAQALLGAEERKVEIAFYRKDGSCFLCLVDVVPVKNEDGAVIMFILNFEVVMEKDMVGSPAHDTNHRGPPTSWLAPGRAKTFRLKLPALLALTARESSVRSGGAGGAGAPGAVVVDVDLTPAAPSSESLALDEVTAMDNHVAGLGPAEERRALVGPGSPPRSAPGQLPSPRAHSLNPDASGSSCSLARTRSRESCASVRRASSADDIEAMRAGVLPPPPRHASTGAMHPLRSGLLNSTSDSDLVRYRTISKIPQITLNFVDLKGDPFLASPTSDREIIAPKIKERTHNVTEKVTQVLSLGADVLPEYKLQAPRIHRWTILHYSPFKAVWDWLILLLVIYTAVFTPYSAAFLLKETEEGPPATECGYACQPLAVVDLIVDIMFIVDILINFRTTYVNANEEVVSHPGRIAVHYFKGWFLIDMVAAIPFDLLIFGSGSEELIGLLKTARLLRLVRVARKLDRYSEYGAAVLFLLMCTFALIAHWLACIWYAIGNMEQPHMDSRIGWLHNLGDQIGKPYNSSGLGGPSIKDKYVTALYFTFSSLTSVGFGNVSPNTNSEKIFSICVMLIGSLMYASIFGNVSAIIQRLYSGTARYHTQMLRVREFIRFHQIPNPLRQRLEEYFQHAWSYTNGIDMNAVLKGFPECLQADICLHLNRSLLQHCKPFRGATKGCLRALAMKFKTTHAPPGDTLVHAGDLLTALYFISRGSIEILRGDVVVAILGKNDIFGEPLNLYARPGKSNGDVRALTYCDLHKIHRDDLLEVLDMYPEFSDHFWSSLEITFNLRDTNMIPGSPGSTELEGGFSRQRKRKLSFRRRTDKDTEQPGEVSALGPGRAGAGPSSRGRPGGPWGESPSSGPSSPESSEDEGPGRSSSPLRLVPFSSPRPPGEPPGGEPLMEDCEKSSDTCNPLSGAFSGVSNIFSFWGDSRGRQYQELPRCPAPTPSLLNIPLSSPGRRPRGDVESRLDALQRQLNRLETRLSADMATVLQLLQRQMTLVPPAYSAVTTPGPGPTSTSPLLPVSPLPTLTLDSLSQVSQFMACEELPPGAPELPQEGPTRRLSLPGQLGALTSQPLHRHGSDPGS

| Ki ([1]; Table 1) [µM] | Ki ([1]; Table 2) [µM] | Molecule | IC50 ([2]; Table 1, pacing rate 3 Hz) [µM] | IC50 ([3]; Table 1, pacing rate 0.1 Hz) [µM] | IC50 ([2]; Table 2, pacing rate 3 Hz) [µM] | IC50 ([3]; Table 2, pacing rate 0.1 Hz) [µM] |
| --- | --- | --- | --- | --- | --- | --- |
| 0.5 | – | CN(C)CC/C=C1/c2ccccc2CCc2cc(O)ccc21 [(Z)-5-(3-(dimethylamino)propylidene)-10,11-dihydro-5H-dibenzo[a,d][7]annulen-2-ol, reference compound] | 14.9 | 1.6 | – | – |
| 646 | – | COCCOCCOCCOCCOCCOCCOCCOCCOc1ccc2c(c1)CCc1ccccc1/C2=C/CCN(C)C [5-(3-Dimethylamino-propylidene)-10,11-dihydro-5H-dibenzo[a,d]cyclohept-Z-en-2-OmPEG8 hydrochloride salt] | 16.9 | 26.4 | – | – |
| – | 0.34 | CN(C)CC/C=C1\c2ccccc2C[C@H](O)c2ccccc21 [(S)-5-(3-Dimethylamino-propylidene)-10,11-dihydro-5H-dibenzo[a,d]cyclohept-E-en-10-ol, reference compound] | – | – | 16.6 | 23.2 |
| – | 14.2 | COCCOCCOCCOCCOCCOCCO[C@H]1Cc2ccccc2/C(=C\CCN(C)C)c2ccccc21 [(S)-5-(3-dimethylamino-propylidene)-10-OmPEG6-10,11-dihydro-5H-dibenzo[a,d]cyclohept-E-ene trifluoroacetate salt] | – | – | 8.5 | 36 |
| 37.7 | – | 5-(3-Dimethylamino-propylidene)-10,11-dihydro-5H-dibenzo[a,d]cyclohept-Z-en-2-OmPEG6 hydrochloride salt | 12.4 | 8.1 | – | – |
| – | – | CN(C)CCC=C1c2ccccc2CCc2ccccc21 [Amitriptyline, reference compound] | 7.1 | – | 7.1 | – |
| 60.8 | – | COCCOCCOCCOCCOc1ccc2c(c1)CCc1ccccc1/C2=C\CCN(C)C [5-(3-Dimethylamino-propylidene)-10,11-dihydro-5H-dibenzo[a,d]cyclohept-E-en-2-OmPEG4 hydrochloride salt] | 6.8 | 5.8 | – | – |
| – | 60.4 | COCCOCCOCCOCCOCCOCCO[C@@H]1Cc2ccccc2/C(=C\CCN(C)C)c2ccccc21 [(R)-5-(3-dimethylamino-propylidene)-10-OmPEG6-10,11-dihydro-5H-dibenzo[a,d]cyclohept-E-ene trifluoroacetate salt] | – | – | 8.1 | 37.9 |
| – | 12.6 | COCCOCCOCCOCCO[C@H]1Cc2ccccc2/C(=C\CCN(C)C)c2ccccc21 [(S)-5-(3-dimethylamino-propylidene)-10-OmPEG4-10,11-dihydro-5H-dibenzo[a,d]cyclohept-E-ene trifluoroacetate salt] | – | – | 39.4 | 24.8 |
| – | 13.5 | COCCOCCOCCOCCOCCOCCOCCOCCO[C@@H]1Cc2ccccc2/C(=C\CCN(C)C)c2ccccc21 [(R)-5-(3-dimethylamino-propylidene)-10-OmPEG8-10,11-dihydro-5H-dibenzo[a,d]cyclohept-E-ene trifluoroacetate salt] | – | – | 21.2 | 55.9 |
| 62.9 | – | COCCOCCOCCOCCOCCOCCOCCOCCOc1ccc2c(c1)CCc1ccccc1/C2=C\CCN(C)C [5-(3-Dimethylamino-propylidene)-10,11-dihydro-5H-dibenzo[a,d]cyclohept-E-en-2-OmPEG8 hydrochloride salt] | 23.4 | 2.2 | – | – |
| – | 2.53 | CN(C)CC/C=C1\c2ccccc2C[C@@H](O)c2ccccc21 [(R)-5-(3-dimethylamino-propylidene)-10,11-dihydro-5H-dibenzo[a,d]cyclohept-E-en-10-ol, reference compound] | – | – | 6.2 | 18 |
| – | 14 | COCCOCCOCCOCCOCCOCCOCCOCCO[C@H]1Cc2ccccc2/C(=C\CCN(C)C)c2ccccc21 [(S)-5-(3-dimethylamino-propylidene)-10-OmPEG8-10,11-dihydro-5H-dibenzo[a,d]cyclohept-E-ene trifluoroacetate salt] | – | – | 71.6 | > 100 |
| – | 28.1 | COCCOCCOCCOCCO[C@@H]1Cc2ccccc2/C(=C\CCN(C)C)c2ccccc21 [(R)-5-(3-dimethylamino-propylidene)-10-OmPEG4-10,11-dihydro-5H-dibenzo[a,d]cyclohept-E-ene trifluoroacetate salt] | – | – | 21.3 | 39.9 |
| 35.5 | – | 5-(3-Dimethylamino-propylidene)-10,11-dihydro-5H-dibenzo[a,d]cyclohept-E-en-2-OmPEG6 hydrochloride salt | 16.3 | 61.5 | – | – |
| 21.2 | – | COCCOCCOCCOCCOc1ccc2c(c1)CCc1ccccc1/C2=C/CCN(C)C [5-(3-Dimethylamino-propylidene)-10,11-dihydro-5H-dibenzo[a,d]cyclohept-Z-en-2-OmPEG4 hydrochloride salt] | 12.8 | 24.9 | – | – |
